pIC50: −log10 of the molar value.
Columns and labels:
[1] = biological target: T1, GLP (Homo sapiens, UniProt Q9H9B1); assay: biochemical; details: read-out: DA3003-1 IC50; inhibitor
T1 construct: gene EHMT1
T1 sequence (Q9H9B1 1-1298): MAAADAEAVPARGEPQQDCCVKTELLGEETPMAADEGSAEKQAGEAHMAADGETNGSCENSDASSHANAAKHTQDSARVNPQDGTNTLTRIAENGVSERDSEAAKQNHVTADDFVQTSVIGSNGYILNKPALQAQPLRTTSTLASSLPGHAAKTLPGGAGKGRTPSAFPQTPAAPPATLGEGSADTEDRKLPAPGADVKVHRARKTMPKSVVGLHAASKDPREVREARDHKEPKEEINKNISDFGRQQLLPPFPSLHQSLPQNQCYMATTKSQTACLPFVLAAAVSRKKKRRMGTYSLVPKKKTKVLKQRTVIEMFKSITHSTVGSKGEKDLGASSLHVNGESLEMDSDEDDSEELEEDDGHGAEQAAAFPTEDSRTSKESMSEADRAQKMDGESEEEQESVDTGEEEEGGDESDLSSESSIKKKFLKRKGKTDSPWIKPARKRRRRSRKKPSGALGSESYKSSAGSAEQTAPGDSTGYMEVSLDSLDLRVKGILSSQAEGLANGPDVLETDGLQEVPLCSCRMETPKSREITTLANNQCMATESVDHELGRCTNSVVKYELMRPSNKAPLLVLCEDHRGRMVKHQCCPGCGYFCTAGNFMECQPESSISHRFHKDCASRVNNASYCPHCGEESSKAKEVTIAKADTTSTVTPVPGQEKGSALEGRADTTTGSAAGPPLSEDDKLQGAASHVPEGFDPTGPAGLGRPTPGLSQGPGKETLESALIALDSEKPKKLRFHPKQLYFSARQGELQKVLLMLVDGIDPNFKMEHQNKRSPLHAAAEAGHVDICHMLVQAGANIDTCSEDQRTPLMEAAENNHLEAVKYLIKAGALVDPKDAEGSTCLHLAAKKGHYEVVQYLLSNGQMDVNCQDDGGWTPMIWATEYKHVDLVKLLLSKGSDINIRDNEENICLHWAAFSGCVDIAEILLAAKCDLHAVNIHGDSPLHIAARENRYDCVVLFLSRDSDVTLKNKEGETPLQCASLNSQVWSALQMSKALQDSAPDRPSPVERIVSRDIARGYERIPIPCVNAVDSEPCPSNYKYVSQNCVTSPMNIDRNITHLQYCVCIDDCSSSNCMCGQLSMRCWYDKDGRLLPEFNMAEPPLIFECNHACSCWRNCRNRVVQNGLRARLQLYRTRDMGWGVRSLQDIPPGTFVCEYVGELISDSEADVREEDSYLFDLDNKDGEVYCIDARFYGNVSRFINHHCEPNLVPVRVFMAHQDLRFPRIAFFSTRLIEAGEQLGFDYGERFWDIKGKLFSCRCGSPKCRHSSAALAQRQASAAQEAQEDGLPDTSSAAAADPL

[2] = biological target: T2, PRMT4 (Homo sapiens, UniProt Q86X55); details: read-out: DA3003-1 IC50; inhibitor
T2 construct: gene CARM1

[3] = biological target: T3, NSD2 (Homo sapiens, UniProt O96028); assay: biochemical; parameters: MTase-Glo bioluminescence methyltransferase assay, full-length NSD2 with HeLa nucleosomes; details: read-out: MTase-Glo IC50
T3 construct: full length (residues 2-1365), N-terminal His tag, insect cell/baculovirus
T3 sequence (O96028 2-1365): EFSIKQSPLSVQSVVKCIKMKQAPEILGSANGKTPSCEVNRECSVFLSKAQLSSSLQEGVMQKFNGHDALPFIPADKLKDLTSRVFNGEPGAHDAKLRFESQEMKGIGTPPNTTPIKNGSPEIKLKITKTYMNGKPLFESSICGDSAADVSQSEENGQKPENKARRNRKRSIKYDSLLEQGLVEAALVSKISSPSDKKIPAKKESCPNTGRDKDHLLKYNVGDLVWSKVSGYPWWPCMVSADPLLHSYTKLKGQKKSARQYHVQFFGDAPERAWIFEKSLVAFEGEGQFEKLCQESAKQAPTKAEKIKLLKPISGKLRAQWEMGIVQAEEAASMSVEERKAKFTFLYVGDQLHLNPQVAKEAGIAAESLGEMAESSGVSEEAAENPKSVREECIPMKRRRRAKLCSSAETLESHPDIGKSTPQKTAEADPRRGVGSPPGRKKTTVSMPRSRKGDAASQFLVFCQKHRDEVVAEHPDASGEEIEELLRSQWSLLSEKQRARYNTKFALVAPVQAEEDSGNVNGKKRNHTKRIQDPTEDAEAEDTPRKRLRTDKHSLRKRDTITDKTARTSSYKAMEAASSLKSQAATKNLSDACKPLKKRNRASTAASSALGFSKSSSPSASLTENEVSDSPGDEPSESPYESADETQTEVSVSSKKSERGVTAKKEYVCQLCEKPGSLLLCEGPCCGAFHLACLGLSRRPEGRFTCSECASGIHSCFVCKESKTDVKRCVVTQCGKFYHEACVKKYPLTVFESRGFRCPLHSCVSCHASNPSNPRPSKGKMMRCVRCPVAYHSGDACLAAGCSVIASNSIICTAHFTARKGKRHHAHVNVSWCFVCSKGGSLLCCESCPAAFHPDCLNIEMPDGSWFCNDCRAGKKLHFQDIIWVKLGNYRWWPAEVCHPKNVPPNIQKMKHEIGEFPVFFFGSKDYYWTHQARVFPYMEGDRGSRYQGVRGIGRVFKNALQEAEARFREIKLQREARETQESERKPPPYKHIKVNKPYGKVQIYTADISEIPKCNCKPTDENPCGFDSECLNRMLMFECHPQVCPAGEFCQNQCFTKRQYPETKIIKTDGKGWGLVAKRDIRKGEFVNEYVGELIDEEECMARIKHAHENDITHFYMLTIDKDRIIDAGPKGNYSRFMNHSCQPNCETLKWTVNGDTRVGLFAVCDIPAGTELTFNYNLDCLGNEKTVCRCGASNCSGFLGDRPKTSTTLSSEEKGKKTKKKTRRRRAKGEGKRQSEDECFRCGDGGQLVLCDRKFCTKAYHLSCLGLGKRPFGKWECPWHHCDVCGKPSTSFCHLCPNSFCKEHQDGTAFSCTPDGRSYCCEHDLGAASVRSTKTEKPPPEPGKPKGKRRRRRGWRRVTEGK
Description: A major challenge in screening for small molecule inhibitors is that native NSD2 requires nucleosomes as a substrate ([17]). […] Chemical libraries were screened in 3-dose point quantitative high-throughput screening (qHTS) format ([43]) with the Methyltransferase-Glo (MTase-Glo™) methyltransferase bioluminescence assay ([44]). A number of counter and orthogonal assays were also developed to characterize the hits from the primary screen. Confirmed hits were validated with a radiolabeled SAM substrate-based NSD2 activity assay and further interrogated with binding studies by surface plasmon resonance (SPR), methyltransferase profiling, and activity assessments in U-2 OS cells. […] Overall the reaction conditions were very similar.

T2 sequence (Q86X55 whole entry): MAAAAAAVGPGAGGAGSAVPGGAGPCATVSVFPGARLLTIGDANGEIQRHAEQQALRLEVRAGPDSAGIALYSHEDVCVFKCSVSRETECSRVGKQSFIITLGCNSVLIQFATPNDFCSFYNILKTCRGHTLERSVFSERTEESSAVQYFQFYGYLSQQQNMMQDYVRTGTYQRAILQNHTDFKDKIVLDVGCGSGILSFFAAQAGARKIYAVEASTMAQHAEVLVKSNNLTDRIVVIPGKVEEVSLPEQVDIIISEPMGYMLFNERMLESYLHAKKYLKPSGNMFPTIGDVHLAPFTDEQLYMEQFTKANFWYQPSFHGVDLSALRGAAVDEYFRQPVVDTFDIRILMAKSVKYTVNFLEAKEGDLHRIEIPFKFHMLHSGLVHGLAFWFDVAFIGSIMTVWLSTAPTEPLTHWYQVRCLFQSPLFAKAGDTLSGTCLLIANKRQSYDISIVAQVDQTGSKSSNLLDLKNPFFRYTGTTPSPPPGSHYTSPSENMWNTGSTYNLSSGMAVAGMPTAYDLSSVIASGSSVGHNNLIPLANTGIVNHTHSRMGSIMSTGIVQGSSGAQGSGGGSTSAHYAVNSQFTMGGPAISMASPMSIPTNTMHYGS

Row | pIC50 [1] | pIC50 [2] | pIC50 [3] | SMILES
1 | 4.44 | 5.85 |  | O=C1C(Cl)=C(NCCN2CCOCC2)C(=O)c2ncccc21 [DA3003-1]
2 |  |  | 4.82 | CC1(C)CCC(CN2CCN(c3ccc(C(=O)NS(=O)(=O)c4ccc(NCC5CCOCC5)c([N+](=O)[O-])c4)c(Oc4cnc5[nH]ccc5c4)c3)CC2)=C(c2ccc(Cl)cc2)C1 [ABT-199]

— doi:10.1101/208439v1 (biorxiv, 2017)
